Columns and labels:
ERα = target: T1, ERα (Homo sapiens, UniProt P03372); test: Estrogen-responsive luciferase reporter transcriptional assay in T47DKBluc cells; assay type: cell-based; conditions: 1 nM E2, 24 h, read-out: IC50 against ERα in the luciferase reporter-based transcriptional assay
T1 construct: endogenous in cells; host or cells: T47DKBluc (ATCC CRL-2865)
T1 sequence (P03372 1-595): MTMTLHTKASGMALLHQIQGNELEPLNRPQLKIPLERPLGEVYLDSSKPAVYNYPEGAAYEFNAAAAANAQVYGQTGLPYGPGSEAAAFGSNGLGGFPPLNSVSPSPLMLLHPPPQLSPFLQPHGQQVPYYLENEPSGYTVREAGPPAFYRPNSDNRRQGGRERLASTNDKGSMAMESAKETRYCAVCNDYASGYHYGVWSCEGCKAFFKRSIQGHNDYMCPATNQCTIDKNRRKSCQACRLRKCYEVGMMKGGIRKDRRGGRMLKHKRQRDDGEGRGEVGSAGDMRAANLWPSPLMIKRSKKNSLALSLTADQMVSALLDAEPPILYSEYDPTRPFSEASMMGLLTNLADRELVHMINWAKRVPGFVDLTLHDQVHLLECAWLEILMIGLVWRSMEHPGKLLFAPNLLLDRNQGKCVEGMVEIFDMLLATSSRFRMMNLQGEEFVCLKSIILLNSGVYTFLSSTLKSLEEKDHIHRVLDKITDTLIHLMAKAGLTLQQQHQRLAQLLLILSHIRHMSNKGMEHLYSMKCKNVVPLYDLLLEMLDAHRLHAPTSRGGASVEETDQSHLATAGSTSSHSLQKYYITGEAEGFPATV
Method: T47DKBluc cells (ATCC® CRL-2865^TM, Manassa, VA, USA) stably transfected with a 3X-ERE–promoter–luciferase reporter gene construct, pGL2.TATA.Inr.luc.neo [38], were used to measure inhibition of ERα-driven transcriptional activity of the luciferase reporter.
This assay was performed as described previously. Briefly, ERα-positive T47DKBluc cells were grown in phenol red-free RPMI 1640 supplemented with 10% CSS for 5 days. The cells were seeded on 96-well plates (2 × 10^4 cells/well). After 24 h, the cells were treated with test compounds in the presence of 1 nM E2. Twenty four hours post-treatment, the cells were lysed with 50 μL of 1× passive lysis buffer (Promega, Madison, WI, USA). Twenty microliters of the lysate from each treatment were transferred onto a white, 96-well, flat-bottomed plate (Corning Life Sciences, Corelle, NY, USA), and the luminescent signal was measured after adding 50 μL of the luciferase assay reagent (Promega, Madison, WI, USA) on a Tecan M200Pro microplate reader (Tecan, Menedorf, Switzerland). Differences in growth were normalised against total protein concentration, which was measured by the bicinchoninic acid (BCA) assay.

[1] = system: TamR3 cells (tamoxifen-resistant MCF7-derived); test: Presto Blue cell viability assay, TamR3; assay type: cell-based, human; conditions: TamR3, 96 h, two-fold dilution starting at 50 µM
Method: The Presto Blue cell viability assay was used to assess the growth inhibitory potential of VPC-16606 on ERα^+ T47D, MCF7, ZR75-1 and TamR3 cells. They were treated for 96 h with a two-fold dilution range of the compound starting at 50 µM.
Cell viability was determined using the Presto Blue cell viability assay (Thermo Fisher Scientific, Waltham, MA, USA). Cells were seeded in clear bottom black-walled 96-well plates at a density of 5 × 10^3 cells/well in 100 μL of their respective media. On the following day, the cells were treated with test compounds (0.001–22.5 μM) in the presence of 1 nM E2 and incubated at 37 °C. After 96 h, 30 μL of Presto Blue reagent was added and incubated for 10 min at 37 °C. The fluorescent signal from viable cells was measured at 590 nm.

[2] = system: pS2, PR, Cyclin D1 and CDC2 proteins; test: Western blotting in MCF7 cells; assay type: cell-based, human; conditions: MCF7, 24 h, effect at higher doses
Method: Serum-starved MCF7 and TamR3 cells were seeded onto a six-well plate at a density of 6 × 10^5 cells/well and treated the following day with VPC-16606 in the presence of 1 nM E2. One micromolar OHT was used as the positive control. After 24 h, cells were lysed in 1× radioimmunoprecipitation assay (RIPA) buffer. Twenty five micrograms of protein were loaded into SDS-PAGE gels and transferred to PVDF membranes. Membranes were incubated with pS2, PR Cyclin D1 and CDC2 antibodies or control α-actin antibody. Bound antibodies were detected using HRP-conjugated secondary antibodies. Chemiluminescence was detected with an Amersham ECL detection kit (GE Healthcare Life Sciences, Chicago, IL, USA), and bands were visualised using the G:BOX imager (Syngene, Cambridge, UK).

CC(=O)N(/N=C1\Sc2c(C)cccc2C1=O)c1ccccc1Cl [VPC-16606]
IC50 (ERα): 0.3 µM | Cell growth (Presto Blue viability) [1]: significantly reduce the growth | Expression of pS2, PR, Cyclin D1 and CDC2 proteins (Western blot) [2]: decreased expression

Source: paper PMC5855801, “Benzothiophenone Derivatives Targeting Mutant Forms of Estrogen Receptor-α in Hormone-Resistant Breast Cancers” (International Journal of Molecular Sciences, 2018)
